# Laboratory results: US20100152102A1, “USE OF SO[…] ONE OF ITS ANALOGUES FOR PREPARING A […] TO REGULATE THE OVARIAN […] IN NON-[…]” (Preglem S.A., priority 2003, published 2010)
# [ ]: non-standard residue; d: D form. Tic = O=C(O)[C@@H]1Cc2ccccc2CN1; Abu = CC[C@H](N)C(=O)O
# Experiments:
# [1] = system: primordial follicles of ewe ovarian cortex; test: culture of ovarian cortex fragments of adult ewes for 10 days; assay type: cell-based; conditions: 10 days culture; for start of growth of the primordial follicles: vs control (FIG. 3)
# Protocol: Ovaries of adult ewes are collected immediately after slaughter. The ovaries are placed in an organ transport medium without serum (X-vivo, Bio Whittaker, Walkersville, Md., USA) at 10° C. and transported to the laboratory. Approximately 1 h after removal, the cortex is isolated from the medulla then fractionated into slices of 2 mm thickness (1 cm^2, average weight of 212 mg) after rinsing in new X-vivo. The cortex fragments are cultured in an oven under 5% oxygen for 10 days in well plates in the presence of DMEM. The medium is changed every 2 days.
# The procedure used is the same as for Example 1, except that the somatostatin is replaced with one of its agonist analogues, namely the synthetic peptide of formula c[Tic-Tyr-DTrp-Lys-Abu-Phe] (hereafter AG1 peptide).
# The procedure used is the same as for Example 1, except that the somatostatin is replaced by one of its antagonist analogues, namely the synthetic peptide of formula Cpa-c(DCys-3-Pal-DTrp-NMeLys-Thr-Cys)-2-Nal-NH2 (hereafter ANT1 peptide).
# antral follicles = test: envisaged case: patient with polycystic ovary syndrome treated with lanreotide acetate; assay type: in vivo, women; conditions: 120 mg/month, 4th month of treatment
molecule,measurement,setting,value
Cpa-c(DCys-3-Pal-DTrp-NMeLys-Thr-Cys)-2-Nal-NH2 [ANT1 peptide],start of growth of the primordial follicles,"[1]; ANT1 peptide 10^−6M, FIG. 5",accentuates
cyclo([Tic]Y[dW]K[Abu]F) [AG1 peptide],number of primary follicles,"[1]; AG1 peptide 10^−9M, FIG. 4",absence of increase
same,number of primordial follicles,"[1]; AG1 peptide 10^−9M, FIG. 4",maintenance over time
same,start of growth of the primordial follicles,"[1]; AG1 peptide 10^−9M, FIG. 4",very significantly inhibits
CC(C)[C@@H]1NC(=O)[C@H](CCCCN)NC(=O)[C@@H](Cc2c[nH]c3ccccc23)NC(=O)[C@H](Cc2ccc(O)cc2)NC(=O)[C@@H](NC(=O)[C@H](N)Cc2ccc3ccccc3c2)CSSC[C@@H](C(=O)N[C@H](C(N)=O)[C@@H](C)O)NC1=O [lanreotide acetate],ultrasound of the ovaries: ovarian volume and number of antral follicles,antral follicles,reduction in ovarian volume and in the number of antral follicles
